Six compounds from ChEMBL document CHEMBL1133433, “Synthesis of a novel class of cdc25A inhibitors from vitamin D3” (Bioorg Med Chem Lett, 2000) can be followed below.

The target in experiment [1] is T1, M-phase inducer phosphatase 1 (Homo sapiens, UniProt P30304).
T1 sequence (P30304 whole entry): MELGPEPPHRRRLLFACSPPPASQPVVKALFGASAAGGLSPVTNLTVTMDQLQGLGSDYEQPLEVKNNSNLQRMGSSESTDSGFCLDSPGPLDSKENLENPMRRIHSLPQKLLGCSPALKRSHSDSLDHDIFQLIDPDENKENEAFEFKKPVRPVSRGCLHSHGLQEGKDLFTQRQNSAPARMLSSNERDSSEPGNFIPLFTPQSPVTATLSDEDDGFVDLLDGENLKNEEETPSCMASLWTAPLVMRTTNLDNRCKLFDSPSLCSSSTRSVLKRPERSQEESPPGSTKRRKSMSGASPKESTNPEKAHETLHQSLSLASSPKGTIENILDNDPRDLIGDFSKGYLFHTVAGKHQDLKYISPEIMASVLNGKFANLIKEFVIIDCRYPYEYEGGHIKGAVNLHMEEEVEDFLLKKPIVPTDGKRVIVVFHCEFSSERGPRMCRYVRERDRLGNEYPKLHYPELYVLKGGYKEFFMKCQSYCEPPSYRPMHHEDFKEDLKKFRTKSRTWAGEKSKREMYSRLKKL
Kind of experiment: Concentration required for the inhibitory activity against human Cell division cycle 25A.

The subject of another experiment is SBC-5. Kind of experiment: Inhibitory concentration required for antitumor activity against SBC-5 cells. The class given is functional, cell-based. To be noted: Homo sapiens.

With `COC(=O)/C=C1\CCC[C@@]2(C)C1CC[C@@H]2[C@H](C)CCCC(C)C` (some centres not stated), the IC50 in experiment [1] is over 300 µM; with SBC-5, 71 µM.

Take `CC(C)CCC[C@@H](C)[C@H]1CCC2C(CCCC(=O)O)CCC[C@@]21C` (some centres not stated): the IC50 was 9 µM in experiment [1] and over 100 µM with SBC-5.

Take `CC(C)CCC[C@@H](C)[C@H]1CCC2/C(=C/C=C/C(=O)O)CCC[C@@]21C` (some centres not stated): the concentration for half-maximal inhibition (IC50) in experiment [1] turned out to be 94 µM; in the experiment on SBC-5, 42 µM.

On to `CC(C)CCC[C@@H](C)[C@H]1CCC2C(CC(=O)O)CCC[C@@]21C` (some centres not stated), for which the 50% inhibitory concentration (IC50) in experiment [1] was 32 µM; in the experiment with SBC-5, over 100 µM.

For the compound `CC(C)CCC[C@@H](C)[C@H]1CCC2/C(=C/C(=O)O)CCC[C@@]21C` (some centres not stated), the IC50 turned out to be 7.7 µM in experiment [1] and 47 µM with SBC-5.

Turning to `COC(=O)CC1CCC[C@@]2(C)C1CC[C@@H]2[C@H](C)CCCC(C)C` (some centres not stated), the IC50 is over 300 µM in experiment [1] and 70 µM in the experiment with SBC-5.

Usually IC50 stands for the midpoint of a concentration-inhibition curve. Read a high IC50 as weaker potency.
